In one experiment the target is T1, FIEL1/PIAS4 interaction (Homo sapiens, UniProt O15033).
T1 construct: made in house; host or cells: 293T cells (FIEL1)
T1 sequence (O15033 1-789 isoform O15033-2): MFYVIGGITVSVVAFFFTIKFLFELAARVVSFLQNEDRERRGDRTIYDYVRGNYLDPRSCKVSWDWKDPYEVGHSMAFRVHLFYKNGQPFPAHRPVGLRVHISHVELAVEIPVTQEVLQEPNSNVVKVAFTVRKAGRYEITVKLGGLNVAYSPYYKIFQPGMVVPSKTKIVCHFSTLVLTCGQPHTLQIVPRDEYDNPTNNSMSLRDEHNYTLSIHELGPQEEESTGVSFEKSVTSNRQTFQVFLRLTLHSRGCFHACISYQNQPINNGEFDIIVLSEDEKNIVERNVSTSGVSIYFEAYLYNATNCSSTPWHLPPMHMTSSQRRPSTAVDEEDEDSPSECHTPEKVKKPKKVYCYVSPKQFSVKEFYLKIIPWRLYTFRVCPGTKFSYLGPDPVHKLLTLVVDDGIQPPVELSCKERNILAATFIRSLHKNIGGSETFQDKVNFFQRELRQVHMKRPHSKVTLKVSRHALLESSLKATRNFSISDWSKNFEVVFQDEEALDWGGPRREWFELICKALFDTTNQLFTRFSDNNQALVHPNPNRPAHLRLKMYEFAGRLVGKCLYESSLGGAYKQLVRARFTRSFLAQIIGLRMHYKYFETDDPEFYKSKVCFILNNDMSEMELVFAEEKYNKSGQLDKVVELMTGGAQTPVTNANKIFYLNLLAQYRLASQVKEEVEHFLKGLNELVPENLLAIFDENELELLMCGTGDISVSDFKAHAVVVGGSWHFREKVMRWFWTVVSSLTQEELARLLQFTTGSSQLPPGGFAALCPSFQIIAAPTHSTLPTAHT
Nature of the experiment: In vitro drug binding assay: PIAS4 pull-down on drug-bound FIEL1 beads. As for the experimental part:
(§1) FIG. 7A. […] FIG. 7B. Structures of the BC-1480 backbone and lead compound BC-1485. FIG. 7C. FIEL1 protein was HIS-purified from FIEL1 expression in 293T cells using cobalt beads. Beads were then extensively washed prior to exposure to BC-1480 or BC-1485 at different concentrations (10^−4 to 100 μM). Purified PIAS4 protein was then incubated with drug-bound FIEL1 beads overnight. Beads were washed, and proteins were eluted and resolved on SDS-PAGE. The relative amounts of PIAS4 detected in the pull-downs was normalized to loading and quantified (n=2). FIG. 7D. MLE cells were exposed to BC-1480 or BC-1485 at various concentrations for 18 h. Cells were then collected and immunoblotted. FIGS. 7E-J. C57BL/6J mice were administered with bleomycin (0.05 U) for 7-21 days. Compounds BC-1480 and BC-1485 were given to mice through drinking water with an estimated dose of 5 mg/kg/d. Mice were euthanized, and lungs were lavaged with saline, harvested, and then homogenized. Lavage proteins, CXCL1, and total cell count were measured in FIGS. 7E-G. H. Survival studies of mice that were given bleomycin and compound treatments. Mice were carefully monitored over time; moribund, preterminal animals were immediately euthanized and recorded as deceased. Kaplan-Meier survival curves were generated using SPSS software (p<0.01 compared to Vehicle). Vehicle: n=24, BC-1480: n=13, BC-1485: n=12. FIG. 7I. Hydroxyproline contents were measured in lungs from 7, 14, and 21d after bleomycin challenge. FIG. 7J. Trichrome staining was performed on lung samples from E. Original magnification, ×10. *p<0.05 compared to Vehicle (t-test). Data are an average of two experiments (FIGS. 7E-J, 4-8 mice/group)
FIEL1 protein was HIS-purified from FIEL1 expression 293T cells using cobalt beads. Beads were then extensively washed prior to exposure to BC-1480 or BC-1485 at different concentrations (10^−4 to 100 μM). Purified recombinant PIAS4 protein was then incubated with drug-bound FIEL1 beads overnight. […] The relative amounts of PIAS4 detected in the pull-downs were normalized to loading and quantified.

The test system of experiment [1] is bleomycin-induced lung injury in C57BL/6J mice. Nature of the experiment: Bleomycin lung fibrosis model in mice. The format is in vivo. As to conditions: estimated 5 mg/kg/d; for lung (pulmonary) fibrosis: 7-21 days. Here is the method:
as §1
C57BL/6J mice were administered i.t. with bleomycin (0.05 U) for 7-21 days. Compounds BC-1480 and BC-1485 were given to mice through drinking water with an estimated dose of 5 mg/kg/d. Mice were then euthanized, and lungs were lavaged with saline, harvested, and then homogenized. Lavage IL-6 was measured in (FIG. 16A). Lavage cells were also processed for Wright-Giemsa stain; Lavage macrophages, neutrophils and lymphocytes were counted and graphed (FIGS. 16B-16D). H&E staining was performed on lung samples from A. Original magnification, ×10. *p<0.05 compared to Vehicle (t test). Data are an average of two experiments (A-E, 4-8 mice/group).
Murine lungs were dried and weighed prior to digestion with HCl. Hydroxyproline concentrations were measuring using methods previously described in Kesava Reddy et al., Clinical Biochemistry, 29(3): 225-229 (1996), and Neuman et al., J. of Biol. Chem., 184(1): 299-306 (1950). Hydroxyproline content was normalized to dry lung weight.
All procedures were approved by the University of Pittsburgh Institutional Animal Care and Use Committee. For fibrosis studies, male C57BL/6J mice were deeply anesthetized using a ketamine/xylazine mixture, and the larynx was well visualized under a fiber optic light source before endotracheal intubation with a 3/400 24-gauge plastic catheter. 10^7 CFU of lentivirus encoding genes for Empty (E), FIEL1, CON shRNA, or KIAA0317 shRNA was given i.t. for 144 h before administration of bleomycin (0.02 U˜0.05 U i.t.) for up to 21 days. Animals were euthanized and assayed for BAL protein, cell count, cytokines, and lung infiltrates. Survival studies were performed on mice that were given bleomycin (0.02 U˜0.05 U i.t.). Mice were carefully monitored over time; moribund, preterminal animals were immediately euthanized and recorded as deceased. For drug studies, mice were deeply anesthetized as above. Bleomycin (0.05 U i.t.) was given i.t. before BC-1480 or BC-1485 (5 mg/kg/d) was administered to the mice through their drinking water. 7-21d later, animals were euthanized and analyzed as above.

Where [2] appears, read: bleomycin 0.05 U i.t., up to 21 days, drinking water.

Turning to `CC(NC(=O)c1ccc(NS(=O)(=O)c2ccc3[nH]c(=O)[nH]c3c2)cc1)C(=O)N(C)C` (stereo not drawn) [BC-1485], on FIEL1/PIAS4 interaction (10^−4 to 100 μM compound on FIEL1 beads, FIG. 7C), the “activity in disrupting the FIEL1/PIAS4 interaction compared to BC-1480” value is reported as > 100 fold. At FIEL1/PIAS4 interaction (FIG. 7), the “inhibition of FIEL1 and PIAS4 interaction” value was “inhibition of FIEL1 and PIAS4 interaction”. Further, the lung hydroxyproline content result in experiment [1] (7, 14 and 21 d after bleomycin) is “significant decrease”. Also, in experiment [1] (bleomycin 0.05 U i.t.), the “lung (pulmonary) fibrosis” value is “marked decrease”; the “lung collagen (Mason Trichrome staining)” value is “Decreased”; the “peribronchiolar and parenchymal fibrosis (H&E)” value was “substantially decreased”. Further, the “lung (pulmonary) fibrosis” value in experiment [1] (bleomycin 0.05 U i.t., listed as BC 1485) is “inhibition of pulmonary fibrosis”. Further, in experiment [1] (setting [2]), the “BAL CXCL1 levels” value was “significantly decreased”, the “BAL IL-6 levels” value is “significantly decreased”, the BAL protein concentrations entry is “significantly decreased” and the “BAL total cell counts” value is reported as “significantly decreased”. In addition, the survival result in experiment [1] (bleomycin 0.05 U i.t., drinking water) is recorded as “significantly improved”.
